Tests used:
5-HT1A receptor = biological target: T1, 5-HT1A receptor (Homo sapiens, UniProt P08908); assay: Serotonin receptor binding experiment, 5-HT1A; set-up: species or system human or rat; conditions: [3H]8-OH-DPAT 0.5 nM, 60 min at 27° C.; read-out: Receptor affinity (IC50, nM) 5-HT1A
T1 sequence (P08908 1-422): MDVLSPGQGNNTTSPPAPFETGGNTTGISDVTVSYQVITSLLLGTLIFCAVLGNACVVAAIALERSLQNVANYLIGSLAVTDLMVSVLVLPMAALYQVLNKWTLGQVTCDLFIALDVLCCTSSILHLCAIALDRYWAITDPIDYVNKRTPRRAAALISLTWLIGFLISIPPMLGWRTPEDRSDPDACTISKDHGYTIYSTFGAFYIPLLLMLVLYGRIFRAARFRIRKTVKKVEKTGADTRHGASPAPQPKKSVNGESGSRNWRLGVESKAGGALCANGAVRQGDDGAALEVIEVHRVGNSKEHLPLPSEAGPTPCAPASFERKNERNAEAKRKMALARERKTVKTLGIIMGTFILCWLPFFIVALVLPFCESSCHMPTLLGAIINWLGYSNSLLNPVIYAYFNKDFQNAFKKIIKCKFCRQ
Procedure: The measurement of affinity for serotonin 5-HT receptor family was performed according to the experimental conditions as specified in Table 2 below using the method same as in Experimental Example 1 above.

Rotarod deficit in mice [1] = type: in vivo; conditions: mouse, in vivo, ip, mice, rod rotating at 6 rpm, 30-120 min after administration
Procedure: (§1) Each mouse was administered with a test drug, and then placed on a 1 inch diameter knurled plastic rod rotating at 6 rpm (Ugo-Basile, Milano, Italy), and the rotarod deficit (%) was obtained by counting the number of mice fallen from the rotating rod within 1 min at 30, 60, 90, and 120 min after the administration of the drug.

rotarod deficit in mice [2] = assay: Rotarod deficit in mice; type: in vivo; conditions: for Rotarod deficit TD50 (mg/kg, ip): mice, rod rotating at 6 rpm, 30-120 min after administration; for rotarod deficit TD50 as times of ED50 for antipsychotic efficacy: mouse, in vivo, ip
Procedure: as §1

SMILES | IC50 (5-HT1A receptor) | TD50 (Rotarod deficit in mice [1]) | Rotarod deficit TD50 (mg/kg, ip) (rotarod deficit in mice [2]) | rotarod deficit TD50 as times of ED50 for antipsychotic efficacy (rotarod deficit in mice [2])
CCCc1cc(CCCN2CCN(c3ccccc3)CC2)n(-c2ccccc2)n1 [Compound 155, 1-phenyl-4-(3-(1-phenyl-3-propyl-1H-pyrazol-5-yl)propyl)piperazine] | 109 nM | 20 to 50 mg/kg | 28.5 mg/kg | 2.2-5 times
CCCc1cc(CCCN2CCN(c3ccccc3F)CC2)n(-c2ccccc2)n1 [Compound 156, 1-(2-fluorophenyl)-4-(3-(1-phenyl-3-propyl-1H-pyrazol-5-yl)propyl)piperazine] | 126 nM | 20 to 50 mg/kg | 26.0 mg/kg | 2.2-5 times
CCCc1cc(CCCN2CCN(c3ccc(C)c(C)c3)CC2)n(-c2ccccc2)n1 [Compound 159, 1-(3,4-dimethylphenyl)-4-(3-(1-phenyl-3-propyl-1H-pyrazol-5-yl)propyl)piperazine] | 413 nM | 20 to 50 mg/kg | 35.3 mg/kg | 2.2-5 times
CCCc1cc(CCCN2CCN(c3cccc(C)c3C)CC2)n(-c2ccccc2)n1 [Compound 160, 1-(2,3-dimethylphenyl)-4-(3-(1-phenyl-3-propyl-1H-pyrazol-5-yl)propyl)piperazine] | 50 nM | 20 to 50 mg/kg | 24.6 mg/kg | 2.2-5 times
CC(C)c1cc(CCCN2CCN(c3ccccc3F)CC2)n(-c2ccccc2)n1 [Compound 177, 1-(2-fluorophenyl)-4-(3-(1-phenyl-3-isopropyl-1H-pyrazol-5-yl)propyl)piperazine] | 37 nM | 20 to 50 mg/kg | 19.4 mg/kg | 2.2-5 times
